According to patent EP3436024B1, “3-BETA-METHOXY-PREG FOR USE IN THE TREATMENT OF TREATMENT RESISTANT DEPRESSION” (Mapreg, priority 2016, dated 2017):

Columns and labels:
[1] = target: T1, Androgen Receptor (AR) (Rattus norvegicus, UniProt P15207); experiment: Radioligand binding assay, steroid hormone receptor AR; settings: MAP4343 10 µM; 1.5 nM [^3H] Mibolerone; Rat recombinant E. coli
T1 construct: host or cells: E. coli
Experimental: Binding affinity of 3β-methoxy-PREG (MAP4343) for receptors of steroid hormones was evaluated using radioligand binding assays.
Table 3. Affinity of MAP4343 (10 µM) for steroid hormones receptors measured by radioligand binding assays. […] None of the results met significance criteria at concentrations used.

[2] = target: Serotoninergic 5-HT3 (Homo sapiens, UniProt P46098); experiment: CNS receptor binding assay, 5-HT3; settings: MAP4343 10 µM; [^3H] BRL 43694; Human recombinant (CHO cells); read-out: % Inhibition of control specific binding
Experimental: MAP4343 has been screened for in vitro affinity to 80 different CNS neurotransmitters receptors using various validated binding assays.
Table 4. In vitro affinity of MAP4343 (10 µM) for CNS neurotransmitter receptors associated with side effects and/or abuse liability. Data are the average of two individual assays for each receptor and are expressed as % inhibition of the control specific binding of the reference compound. Results showing an inhibition higher than 50% are considered to represent significant effects of the test compound.

T1 sequence (P15207 615-902 limits assumed): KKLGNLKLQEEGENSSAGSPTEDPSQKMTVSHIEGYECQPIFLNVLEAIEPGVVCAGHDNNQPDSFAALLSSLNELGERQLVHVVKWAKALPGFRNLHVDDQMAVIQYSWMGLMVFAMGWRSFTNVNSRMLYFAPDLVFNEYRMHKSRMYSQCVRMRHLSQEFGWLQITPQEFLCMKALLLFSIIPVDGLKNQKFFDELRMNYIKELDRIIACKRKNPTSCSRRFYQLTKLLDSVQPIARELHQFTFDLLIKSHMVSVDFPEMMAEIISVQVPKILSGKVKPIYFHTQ
Serotoninergic 5-HT3, sequence (P46098 24-478): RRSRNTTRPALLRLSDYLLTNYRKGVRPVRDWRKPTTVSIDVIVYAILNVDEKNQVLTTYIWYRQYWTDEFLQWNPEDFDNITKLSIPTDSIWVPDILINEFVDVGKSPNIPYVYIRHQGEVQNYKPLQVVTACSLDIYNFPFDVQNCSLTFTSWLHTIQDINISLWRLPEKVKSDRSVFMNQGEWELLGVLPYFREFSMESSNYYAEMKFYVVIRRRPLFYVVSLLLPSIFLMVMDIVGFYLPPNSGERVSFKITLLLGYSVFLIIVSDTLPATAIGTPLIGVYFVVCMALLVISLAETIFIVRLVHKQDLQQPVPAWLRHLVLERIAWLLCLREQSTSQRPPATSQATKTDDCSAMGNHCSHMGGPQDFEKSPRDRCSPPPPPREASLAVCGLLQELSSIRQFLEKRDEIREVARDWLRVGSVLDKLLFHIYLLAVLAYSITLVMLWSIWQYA

CO[C@H]1CC[C@@]2(C)C(=CC[C@H]3[C@@H]4CC[C@H](C(C)=O)[C@@]4(C)CC[C@@H]32)C1 (stereo in doubt) [MAP4343, 3β-methoxy-pregna-5-ene-20-one] was tested, and the “% inhibition” value [1] was 18%, the inhibition at 10 µM [1] was less than 25% and the inhibition at 10 µM [2] was 10%.
